The molecules below were run on M. catarrhalis A894 (assay: Minimal inhibitory concentration (MIC), microdilution method in cation-adjusted Mueller-Hinton Broth (CLSI M7-A7)). Conditions: Moraxella catarrhalis, strain A894.
Format: cell-based
Description: Minimal inhibitory concentrations (MICs; mg/1) were determined in cation-adjusted Mueller-Hinton Broth by a microdilution method following the description given in “Methods for Dilution Antimicrobial Susceptibility Tests for Bacteria that Grow Aerobically”, Approved standard, 7th ed., Clinical and Laboratory Standards Institute (CLSI) Document M7-A7, Wayne, Pa., USA, 2006.

Point of comparison: `Cc1ccc(N2C[C@@H](CNCCC3CN4C(=O)CCc5ccc(F)c3c54)OC2=O)cc1F` (mixture of isomers) [Example 27, (1RS)-9-fluoro-1-(2-{[(R)-3-(3-fluoro-4-methyl-phenyl)-2-oxo-oxazolidin-5-ylmethyl]-amino}-ethyl)-1,2,5,6-tetrahydro-pyrrolo[3,2,1-ij]quinolin-4-one], MIC 0.5 µg/mL. Against it:
- O=C1COc2ccc(N3C[C@H](CCNCC4Cn5c(=O)ccc6ccc(F)c4c65)OC3=O)cc2N1 (mixture of isomers) [Example 1, (1RS)-9-fluoro-1-({2-[(S)-2-oxo-3-(3-oxo-3,4-dihydro-2H-benzo[1,4]oxazin-6-yl)-oxazolidin-5-yl]-ethylamino}-methyl)-1,2-dihydro-pyrrolo[3,2,1-ij]quinolin-4-one] — lower, ≤ 0.031 µg/mL
- O=C1COc2ccc(N3C[C@@H](CCNCC4Cn5c(=O)ccc6ccc(F)c4c65)OC3=O)cc2N1 (mixture of isomers) [Example 2, (1RS)-9-fluoro-1-({2-[(R)-2-oxo-3-(3-oxo-3,4-dihydro-2H-benzo[1,4]oxazin-6-yl)-oxazolidin-5-yl]-ethylamino}-methyl)-1,2-dihydro-pyrrolo[3,2,1-ij]quinolin-4-one] — lower, ≤ 0.031 µg/mL
- O=C1CSc2ccc(N3C[C@@H](CCNCC4Cn5c(=O)ccc6ccc(F)c4c65)OC3=O)cc2N1 (mixture of isomers) [Example 3, (1RS)-9-fluoro-1-({2-[(R)-2-oxo-3-(3-oxo-3,4-dihydro-2H-benzo[1,4]thiazin-6-yl)-oxazolidin-5-yl]-ethylamino}-methyl)-1,2-dihydro-pyrrolo[3,2,1-ij]quinolin-4-one] — lower, ≤ 0.031 µg/mL
- O=C1CSc2ccc(N3C[C@H](CCNCC4Cn5c(=O)ccc6ccc(F)c4c65)OC3=O)cc2N1 (mixture of isomers) [Example 4, (1RS)-9-fluoro-1-({2-[(S)-2-oxo-3-(3-oxo-3,4-dihydro-2H-benzo[1,4]thiazin-6-yl)-oxazolidin-5-yl]-ethylamino}-methyl)-1,2-dihydro-pyrrolo[3,2,1-ij]quinolin-4-one] — lower, ≤ 0.031 µg/mL
- O=C1CSc2ccc(N3C[C@@H](CNCC4Cn5c(=O)ccc6ccc(F)c4c65)OC3=O)cc2N1 (mixture of isomers) [Example 5, (1RS)-9-fluoro-1-({[(R)-2-oxo-3-(3-oxo-3,4-dihydro-2H-benzo[1,4]thiazin-6-yl)-oxazolidin-5-ylmethyl]-amino}-methyl)-1,2-dihydro-pyrrolo[3,2,1-ij]quinolin-4-one] — lower, ≤ 0.031 µg/mL
- O=C1O[C@H](CNCCC2Cn3c(=O)ccc4ccc(F)c2c43)CN1c1ccc2c(c1)OCCO2 (mixture of isomers) [Example 7, (1RS)-1-(2-{[(R)-3-(2,3-dihydro-benzo[1,4]dioxin-6-yl)-2-oxo-oxazolidin-5-ylmethyl]-amino}-ethyl)-9-fluoro-1,2-dihydro-pyrrolo[3,2,1-ij]quinolin-4-one] — lower, ≤ 0.031 µg/mL
- O=C1CSc2ccc(N3C[C@H](CNCCC4Cn5c(=O)ccc6ccc(F)c4c65)OC3=O)cc2N1 (mixture of isomers) [Example 8, (1RS)-9-fluoro-1-(2-{[(S)-2-oxo-3-(3-oxo-3,4-dihydro-2H-benzo[1,4]thiazin-6-yl)-oxazolidin-5-ylmethyl]-amino}-ethyl)-1,2-dihydro-pyrrolo[3,2,1-ij]quinolin-4-one] — lower, ≤ 0.031 µg/mL
- O=C1COc2ccc(N3C[C@@H](CNCCC4Cn5c(=O)ccc6ccc(F)c4c65)OC3=O)cc2N1 (mixture of isomers) [Example 9, (1RS)-9-fluoro-1-(2-{[(R)-2-oxo-3-(3-oxo-3,4-dihydro-2H-benzo[1,4]oxazin-6-yl)-oxazolidin-5-ylmethyl]-amino}-ethyl)-1,2-dihydro-pyrrolo[3,2,1-ij]quinolin-4-one] — lower, ≤ 0.031 µg/mL
- O=C1CSc2ccc(N3C[C@@H](CNCCC4Cn5c(=O)ccc6ccc(F)c4c65)OC3=O)cc2N1 (mixture of isomers) [Example 10, (1RS)-9-fluoro-1-(2-{[(R)-2-oxo-3-(3-oxo-3,4-dihydro-2H-benzo[1,4]thiazin-6-yl)-oxazolidin-5-ylmethyl]-amino}-ethyl)-1,2-dihydro-pyrrolo[3,2,1-ij]quinolin-4-one] — lower, ≤ 0.031 µg/mL
- Cc1ccc(N2C[C@@H](CNCCC3Cn4c(=O)ccc5ccc(F)c3c54)OC2=O)cc1F (mixture of isomers) [Example 11, (1RS)-9-fluoro-1-(2-{[(R)-3-(3-fluoro-4-methyl-phenyl)-2-oxo-oxazolidin-5-ylmethyl]-amino}-ethyl)-1,2-dihydro-pyrrolo[3,2,1-ij]quinolin-4-one] — 7.9-fold lower, 0.063 µg/mL
- O=C1COc2ccc(N3C[C@@H](CCCNC4Cn5c(=O)ccc6ccc(F)c4c65)OC3=O)cc2N1 (mixture of isomers) [Example 12, (1RS)-9-fluoro-1-{3-[(R)-2-oxo-3-(3-oxo-3,4-dihydro-2H-benzo[1,4]oxazin-6-yl)-oxazolidin-5-yl]-propylamino}-1,2-dihydro-pyrrolo[3,2,1-ij]quinolin-4-one] — lower, ≤ 0.031 µg/mL
- O=C1CSc2ccc(N3C[C@@H](CCCNC4Cn5c(=O)ccc6ccc(F)c4c65)OC3=O)cc2N1 (mixture of isomers) [Example 13, (1RS)-9-fluoro-1-{3-[(R)-2-oxo-3-(3-oxo-3,4-dihydro-2H-benzo[1,4]thiazin-6-yl)-oxazolidin-5-yl]-propylamino}-1,2-dihydro-pyrrolo[3,2,1-ij]quinolin-4-one] — lower, ≤ 0.031 µg/mL
- O=C1CSc2ccc(N3C[C@H](CNCCC4Cn5c(=O)ccc6ncc(F)c4c65)OC3=O)cc2N1 (mixture of isomers) [Example 16, (4RS)-3-fluoro-4-(2-{[(S)-2-oxo-3-(3-oxo-3,4-dihydro-2H-benzo[1,4]thiazin-6-yl)-oxazolidin-5-ylmethyl]-amino}-ethyl)-4,5-dihydro-pyrrolo[3,2,1-de][1,5]naphthyridin-7-one] — lower, ≤ 0.031 µg/mL
- O=C1CSc2ccc(N3C[C@@H](CNCCC4Cn5c(=O)ccc6ncc(F)c4c65)OC3=O)cc2N1 (mixture of isomers) [Example 17, (4RS)-3-fluoro-4-(2-{[(R)-2-oxo-3-(3-oxo-3,4-dihydro-2H-benzo[1,4]thiazin-6-yl)-oxazolidin-5-ylmethyl]-amino}-ethyl)-4,5-dihydro-pyrrolo[3,2,1-de][1,5]naphthyridin-7-one] — lower, ≤ 0.031 µg/mL
- O=C1CSc2ccc(N3C[C@@H](CCCNC4Cn5c(=O)cnc6cccc4c65)OC3=O)cc2N1 (mixture of isomers) [Example 20, (6RS)-6-{3-[(R)-2-oxo-3-(3-oxo-3,4-dihydro-2H-benzo[1,4]thiazin-6-yl)-oxazolidin-5-yl]-propylamino}-5,6-dihydro-pyrrolo[1,2,3-de]quinoxalin-3-one] — lower, ≤ 0.031 µg/mL
- O=C1COc2ccc(N3C[C@@H](CCCNC4Cn5c(=O)cnc6cccc4c65)OC3=O)cc2N1 (mixture of isomers) [Example 21, (6RS)-6-{3-[(R)-2-oxo-3-(3-oxo-3,4-dihydro-2H-benzo[1,4]oxazin-6-yl)-oxazolidin-5-yl]-propylamino}-5,6-dihydro-pyrrolo[1,2,3-de]quinoxalin-3-one] — lower, ≤ 0.031 µg/mL
- O=C1CSc2ccc(N3C[C@H](CNCCC4CN5C(=O)CCc6ccc(F)c4c65)OC3=O)cc2N1 (mixture of isomers) [Example 22, (1RS)-9-fluoro-1-(2-{[(S)-2-oxo-3-(3-oxo-3,4-dihydro-2H-benzo[1,4]thiazin-6-yl)-oxazolidin-5-ylmethyl]-amino}-ethyl)-1,2,5,6-tetrahydro-pyrrolo[3,2,1-ij]quinolin-4-one] — lower, ≤ 0.031 µg/mL
- O=C1CSc2ccc(N3C[C@@H](CCNCC4CN5C(=O)CCc6ccc(F)c4c65)OC3=O)cc2N1 (mixture of isomers) [Example 23, (1RS)-9-fluoro-1-({2-[(R)-2-oxo-3-(3-oxo-3,4-dihydro-2H-benzo[1,4]thiazin-6-yl)-oxazolidin-5-yl]-ethylamino}-methyl)-1,2,5,6-tetrahydro-pyrrolo[3,2,1-ij]quinolin-4-one] — lower, ≤ 0.031 µg/mL
- O=C1CSc2ccc(N3C[C@@H](CNCCC4CN5C(=O)CCc6ccc(F)c4c65)OC3=O)cc2N1 (mixture of isomers) [Example 24, (1RS)-9-fluoro-1-(2-{[(R)-2-oxo-3-(3-oxo-3,4-dihydro-2H-benzo[1,4]thiazin-6-yl)-oxazolidin-5-ylmethyl]-amino}-ethyl)-1,2,5,6-tetrahydro-pyrrolo[3,2,1-ij]quinolin-4-one] — lower, ≤ 0.031 µg/mL
- O=C1COc2ccc(N3C[C@@H](CNCCC4CN5C(=O)CCc6ccc(F)c4c65)OC3=O)cc2N1 (mixture of isomers) [Example 25, (1RS)-9-fluoro-1-(2-{[(R)-2-oxo-3-(3-oxo-3,4-dihydro-2H-benzo[1,4]oxazin-6-yl)-oxazolidin-5-ylmethyl]-amino}-ethyl)-1,2,5,6-tetrahydro-pyrrolo[3,2,1-ij]quinolin-4-one] — lower, ≤ 0.031 µg/mL
- O=C1O[C@H](CNCCC2CN3C(=O)CCc4ccc(F)c2c43)CN1c1ccc2c(c1)OCCO2 (mixture of isomers) [Example 26, (1RS)-1-(2-{[(R)-3-(2,3-dihydro-benzo[1,4]dioxin-6-yl)-2-oxo-oxazolidin-5-ylmethyl]-amino}-ethyl)-9-fluoro-1,2,5,6-tetrahydro-pyrrolo[3,2,1-ij]quinolin-4-one] — 2-fold lower, 0.25 µg/mL
- O=C1CSc2ccc(N3C[C@@H](CCNCC4Cn5c(=O)ccc6ncc(F)c4c65)OC3=O)cc2N1 (mixture of isomers) [Example 28, (4RS)-3-fluoro-4-({2-[(R)-2-oxo-3-(3-oxo-3,4-dihydro-2H-benzo[1,4]thiazin-6-yl)-oxazolidin-5-yl]-ethylamino}-methyl)-4,5-dihydro-pyrrolo[3,2,1-de][1,5]naphthyridin-7-one] — lower, ≤ 0.031 µg/mL
- O=C1CSc2ccc(N3C[C@H](CCNCC4CN5C(=O)CCc6ccc(F)c4c65)OC3=O)cc2N1 (mixture of isomers) [Example 29, (1RS)-9-fluoro-1-({2-[(S)-2-oxo-3-(3-oxo-3,4-dihydro-2H-benzo[1,4]thiazin-6-yl)-oxazolidin-5-yl]-ethylamino}-methyl)-1,2,5,6-tetrahydro-pyrrolo[3,2,1-ij]quinolin-4-one] — lower, ≤ 0.031 µg/mL

— patent US9822114B2, “Tricyclic oxazolidinone antibiotic compounds” (Idorsia Pharmaceuticals Ltd, priority 2008, dated 2017)
